Measurements from US8748417B2, “Amino-pyrrolidine-azetidine diamides as monoacylglycerol lipase inhibitors” (Janssen Pharmaceutica, NV, priority 2010, dated 2014).
Where a chain is given by its changes, count along the chain named.

Assays:
Assay type in all cases: biochemical
[1] = molecular target: T1, purified mutant MGL (mut-MGLL 11-313 L179S L186S) (Homo sapiens, UniProt Q99685, L169S/L176S); test: MGL enzyme activity assay (4MU-B cleavage), mutant MGL; settings: mutant MGL 5 nM, 4MU-B 10 μM, 37° C.; read-out: MGL mutant inh IC50
T1 construct: purified mutant MGL (mut-MGLL 11-313 L179S L186S)
T1 sequence (Q99685 1-303 L169S/L176S): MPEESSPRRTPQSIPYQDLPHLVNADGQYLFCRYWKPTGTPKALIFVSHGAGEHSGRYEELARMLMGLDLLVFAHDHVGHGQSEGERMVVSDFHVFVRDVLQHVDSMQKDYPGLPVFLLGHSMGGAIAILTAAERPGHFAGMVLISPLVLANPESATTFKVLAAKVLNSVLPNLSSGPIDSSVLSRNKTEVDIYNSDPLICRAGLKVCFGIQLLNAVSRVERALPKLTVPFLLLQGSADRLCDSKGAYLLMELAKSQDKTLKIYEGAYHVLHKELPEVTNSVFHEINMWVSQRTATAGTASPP
Method: All rate-based assays were performed in black 384-well polypropylene PCR microplates (Abgene) in a total volume of 30 μL. Substrate 4-methylumbelliferyl butyrate (4MU-B; Sigma) and either purified mutant MGL (mut-MGLL 11-313 L179S L186S) or purified wild type MGL (wt-MGLL 6H-11-313) were diluted separately into 20 mM PIPES buffer (pH=7.0), containing 150 mM NaCl and 0.001% Tween 20. Compounds of Formula (I) were pre-dispensed (50 nL) into the assay plate using a Cartesian Hummingbird prior to adding 4MU-B (25 μL of 1.2× solution to a final concentration of 10 μM) followed by enzyme (5 μL of a 6× solution to a final concentration of 5 nM) to initiate the reaction. Final compound concentrations ranged from 17 to 0.0003 μM. The fluorescence change due to 4MU-B cleavage was monitored with excitation and emission wavelengths of 335 and 440 nm, respectively, and a bandwidth of 10 nm (Safire^2, Tecan) at 37° C. for 5 min.
The IC50 values for the following compounds were determined using Microsoft Office Excel from a fit of the equation to the concentration-response plot of the fractional activity as a function of inhibitor concentration.

[2] = molecular target: T2, purified wild type MGL (wt-MGLL 6H-11-313) (Homo sapiens, UniProt Q99685); test: MGL enzyme activity assay (4MU-B cleavage), wild type MGL; settings: wild type MGL 5 nM, 4MU-B 10 μM, 37° C.; read-out: MGL wild type inh IC50
T2 construct: purified wild type MGL (wt-MGLL 6H-11-313)
T2 sequence (Q99685 1-303): T1 sequence (Q99685 1-303 L169S/L176S) with S169L, S176L
Method in brief: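 Enzyme in 20 mM PIPES pH 7.0, 150 mM NaCl, 0.001% Tween 20 with 4MU-B at 10 μM final and MGL at 5 nM final; compounds 17 to 0.0003 μM final, enzyme added last. Fluorescence (ex 335/em 440 nm) followed at 37° C for 5 min; IC50 from fit of fractional activity versus inhibitor concentration.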

[3] = test system: MGL (rat brain homogenate); test: 2-AG accumulation assay in rat brain homogenate; settings: compound 1 μM, percent of vehicle 2-AG accumulation
Method in brief: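 Rat brain homogenate was incubated with compound for 15 min at 37° C., after which CaCl2 was added to a final concentration of 10 mM and incubation continued for 15 min at 37° C. in 5 mL total. Reactions were stopped with 6 mL of 2:1 chloroform/methanol, and 2-AG accumulated in the organic phase was quantified by HPLC/MS.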

IC50 [1] [nM]	IC50 [2] [nM]	Structure (SMILES)	Rat Brain 2AG % VehCntrl (%) @1 μM [3] [%]
11.7	26.5	CN(C1CN(C(=O)c2ccc(-c3cccc(C(F)(F)F)c3)cc2)C1)[C@H]1CCN(C(=O)c2ccccc2)C1 [Cpd 15, (3S)-N-Methyl-1-(phenylcarbonyl)-N-(1-{[3′-(trifluoromethyl)biphenyl-4-yl]carbonyl}azetidin-3-yl)pyrrolidin-3-amine]	649
16.8	17.6	O=C(c1ccccc1)N1CC[C@H](NC2CN(C(=O)c3cc4cc(OC(F)(F)F)ccc4s3)C2)C1 [Cpd 18, (3S)-1-(Phenylcarbonyl)-N-(1-{[5-(trifluoromethoxy)-1-benzothiophen-2-yl]carbonyl}azetidin-3-yl)pyrrolidin-3-amine]	229
7	< 5	O=C(c1ccc2c(-c3cccc(C(F)(F)F)c3)cccc2c1)N1CC(N[C@H]2CCN(C(=O)c3ccccc3)C2)C1 [Cpd 25, (3S)-1-(Phenylcarbonyl)-N-[1-({5-[3-(trifluoromethyl)phenyl]naphthalen-2-yl}carbonyl)azetidin-3-yl]pyrrolidin-3-amine]	823
11	9.8	O=C(c1ccc(-c2cccc(Cl)c2)cc1)N1CC(N[C@H]2CCN(C(=O)c3ccccc3)C2)C1 [Cpd 29, (3S)-N-{1-[(3′-Chlorobiphenyl-4-yl)carbonyl]azetidin-3-yl}-1-(phenylcarbonyl)pyrrolidin-3-amine]	163
8.8	7	O=C(c1ccc(-c2ccc(Cl)c(Cl)c2)cc1)N1CC(N[C@H]2CCN(C(=O)c3ccccc3)C2)C1 [Cpd 30, (3S)-N-{1-[(3′,4′-Dichlorobiphenyl-4-yl)carbonyl]azetidin-3-yl}-1-(phenylcarbonyl)pyrrolidin-3-amine]	155
5	< 5	O=C(c1ccccc1)N1CC[C@H](NC2CN(C(=O)c3sc4cc(-c5ccccc5)ccc4c3Cl)C2)C1 [Cpd 31, (3S)-N-{1-[(3-Chloro-6-phenyl-1-benzothiophen-2-yl)carbonyl]azetidin-3-yl}-1-(phenylcarbonyl)pyrrolidin-3-amine]	323
< 5	< 5	O=C(c1ccccc1)N1CC[C@H](NC2CN(C(=O)c3sc4cc(-c5cccc(C(F)(F)F)c5)ccc4c3Cl)C2)C1 [Cpd 32, (3S)-N-[1-({3-Chloro-6-[3-(trifluoromethyl)phenyl]-1-benzothiophen-2-yl}carbonyl)azetidin-3-yl]-1-(phenylcarbonyl)pyrrolidin-3-amine]	524
< 5	< 5	O=C(c1ccccc1)N1CC[C@H](NC2CN(C(=O)c3sc4cc(-c5ccc(C(F)(F)F)cc5)ccc4c3Cl)C2)C1 [Cpd 33, (3S)-N-[1-({3-Chloro-6-[4-(trifluoromethyl)phenyl]-1-benzothiophen-2-yl}carbonyl)azetidin-3-yl]-1-(phenylcarbonyl)pyrrolidin-3-amine]	499
6.3	< 5	Cc1c(C(=O)N2CC(N[C@H]3CCN(C(=O)c4ccccc4)C3)C2)sc2ccc(-c3cccc(C(F)(F)F)c3)cc12 [Cpd 41, (3S)-N-[1-({3-Methyl-5-[3-(trifluoromethyl)phenyl]-1-benzothiophen-2-yl}carbonyl)azetidin-3-yl]-1-(phenylcarbonyl)pyrrolidin-3-amine]	1102
31.7	9	O=C(c1ccccc1)N1CC[C@H](NC2CN(C(=O)c3cc4ccc(-c5cccc(C(F)(F)F)c5)cc4s3)C2)C1 [Cpd 44, (3S)-1-(Phenylcarbonyl)-N-[1-({6-[3-(trifluoromethyl)phenyl]-1-benzothiophen-2-yl}carbonyl)azetidin-3-yl]pyrrolidin-3-amine]	839
10	286	CCN(C1CN(C(=O)c2ccc(-c3cccc(C(F)(F)F)c3)cc2)C1)[C@H]1CCN(C(=O)c2ccccc2)C1 [Cpd 53, (3S)-N-Ethyl-1-(phenylcarbonyl)-N-(1-{[3′-(trifluoromethyl)biphenyl-4-yl]carbonyl}azetidin-3-yl)pyrrolidin-3-amine]	164
< 5	58.8	O=C(c1ccc(-c2cccc(C(F)(F)F)c2)cc1)N1CC(N(O)[C@H]2CCN(C(=O)c3ccccc3)C2)C1 [Cpd 54, (3S)-N-Hydroxy-1-(phenylcarbonyl)-N-(1-{[3′-(trifluoromethyl)biphenyl-4-yl]carbonyl}azetidin-3-yl)pyrrolidin-3-amine]	242
< 5	20.2	O=C(c1ccccc1)N1CC[C@H](NC2CN(C(=O)c3sc4ccccc4c3Br)C2)C1 [Cpd 55, (3S)-N-{1-[(3-Bromo-1-benzothiophen-2-yl)carbonyl]azetidin-3-yl}-1-(phenylcarbonyl)pyrrolidin-3-amine]	247
< 5	68.4	O=C(c1ccccc1)N1CC[C@H](NC2CN(C(=O)c3sc4cc(F)ccc4c3Cl)C2)C1 [Cpd 56, (3S)-N-{1-[(3-Chloro-6-fluoro-1-benzothiophen-2-yl)carbonyl]azetidin-3-yl}-1-(phenylcarbonyl)pyrrolidin-3-amine]	222
44.3	179	O=C(c1ccc2c(-c3ccccc3)c[nH]c2c1)N1CC(N[C@H]2CCN(C(=O)c3ccccc3)C2)C1 [Cpd 57, (3S)-1-(Phenylcarbonyl)-N-{1-[(3-phenyl-1H-indol-6-yl)carbonyl]azetidin-3-yl}pyrrolidin-3-amine]	154
< 5	41.4	O=C(c1ccc(-c2cccc(C(F)(F)F)c2)cc1)N1CC(NC2CN(C(=O)c3ccccc3)CC2F)C1 (stereo not drawn) [Cpd 59, (3-((1-Benzoyl-4-fluoropyrrolidin-3-yl)amino)azetidin-1-yl)(3′-(trifluoromethyl)-[1,1′-biphenyl]-4-yl)methanone]	389
39.5	70.9	Cn1cc(-c2ccccc2)c2ccc(C(=O)N3CC(N[C@H]4CCN(C(=O)c5ccccc5)C4)C3)cc21 [Cpd 64, (3S)-N-{1-[(1-Methyl-3-phenyl-1H-indol-6-yl)carbonyl]azetidin-3-yl}-1-(phenylcarbonyl)pyrrolidin-3-amine]	182
84.5	–	Cc1c(C(=O)N2CC(N[C@H]3CCN(C(=O)c4ccccc4)C3)C2)sc2ccccc12 [Cpd 68, (3S)-N-{1-[(3-Methyl-1-benzothiophen-2-yl)carbonyl]azetidin-3-yl}-1-(phenylcarbonyl)pyrrolidin-3-amine]	161
25.5	–	O=C(c1ccccc1)N1CC[C@H](NC2CN(C(=O)c3sc4cc(F)ccc4c3C3CC3)C2)C1 [Cpd 70, (3S)-N-{1-[(3-Cyclopropyl-6-fluoro-1-benzothiophen-2-yl)carbonyl]azetidin-3-yl}-1-(phenylcarbonyl)pyrrolidin-3-amine]	217
15.8	–	O=C(c1ccc(C(F)(F)c2ccccc2)cc1)N1CC(N[C@H]2CCN(C(=O)c3ccccc3)C2)C1 [Cpd 73, (3S)-N-[1-({4-[Difluoro(phenyl)methyl]phenyl}carbonyl)azetidin-3-yl]-1-(phenylcarbonyl)pyrrolidin-3-amine]	441
